Assay results taken from US6413978B1, “Basic derivatives of benz[e] isoindol-1-ones and pyrrolo[3,4-c] quinolin-1-ones with 5-HT3-antagonistic activity, their preparation and their therapeutic use” (Rotta Research Laboratorium S.p.A., priority 1998, dated 2002).
Where two headings read alike, the source gives them in different places.

Assays:
[1] = target: T1, 5-HT3 receptors (Rattus norvegicus, UniProt P35563); test: Affinity for the 5-HT3 receptors, [3H]-BRL43694 (Granisetron) binding
T1 construct: from tissue; host or cells: rat cortex and hippocampus
T1 sequence (P35563 24-483): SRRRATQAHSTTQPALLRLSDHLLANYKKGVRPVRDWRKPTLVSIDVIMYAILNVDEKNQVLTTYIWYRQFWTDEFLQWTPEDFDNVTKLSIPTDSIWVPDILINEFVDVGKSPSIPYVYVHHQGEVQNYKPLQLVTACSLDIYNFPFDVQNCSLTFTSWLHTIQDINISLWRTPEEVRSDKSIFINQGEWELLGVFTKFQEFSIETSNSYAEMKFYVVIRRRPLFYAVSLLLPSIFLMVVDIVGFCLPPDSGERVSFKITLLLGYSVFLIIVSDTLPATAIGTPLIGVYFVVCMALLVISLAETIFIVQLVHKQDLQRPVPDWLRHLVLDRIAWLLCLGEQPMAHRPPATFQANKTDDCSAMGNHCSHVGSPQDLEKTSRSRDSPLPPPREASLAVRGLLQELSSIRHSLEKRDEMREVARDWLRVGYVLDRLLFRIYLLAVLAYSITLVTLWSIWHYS
Procedure: a) Affinity for the 5-HT3 Receptors
The method of Nelson et al. (Biochem. Pharmacol. 1989, 38, 1693-95) was followed with slight modifications. Rat cortex and hippocampus were used to produce a pellet having a final concentration of 20 mg of tissue/sample. Specific activity of the tracer: 81 Ci/mmole; incubation time: 30 min; incubation temperature: 25° C.

[2] = target: T2, 5-HT2A Subtype (Rattus norvegicus, UniProt P14842); test: Affinity for the 5HT2 receptors, [3H]-ketanserine binding; settings: for Ki: read-out: Ki ± SE, 5-HT2A Subtype ([3R]-ketanserine)
T2 construct: from tissue; host or cells: rat prefrontal cortex
T2 sequence (P14842 whole entry): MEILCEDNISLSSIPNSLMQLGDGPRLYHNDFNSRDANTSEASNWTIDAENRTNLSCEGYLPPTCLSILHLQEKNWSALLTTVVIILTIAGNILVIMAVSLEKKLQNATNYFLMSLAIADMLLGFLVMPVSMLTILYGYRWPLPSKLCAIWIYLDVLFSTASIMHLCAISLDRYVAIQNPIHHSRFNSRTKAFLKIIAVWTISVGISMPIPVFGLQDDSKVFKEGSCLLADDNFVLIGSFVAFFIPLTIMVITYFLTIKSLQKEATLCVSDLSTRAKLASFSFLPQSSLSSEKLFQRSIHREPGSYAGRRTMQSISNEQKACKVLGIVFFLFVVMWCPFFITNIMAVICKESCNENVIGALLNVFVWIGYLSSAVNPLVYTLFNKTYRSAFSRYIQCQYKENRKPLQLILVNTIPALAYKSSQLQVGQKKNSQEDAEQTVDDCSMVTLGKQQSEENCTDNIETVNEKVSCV
Procedure: c) Affinity for the 5HT2 Receptors
The method of Leysen et al (Mol. Pharmacol. 1982, 21, 301-314) was followed with slight modifications. Rat prefrontal cortex was used to produce a pellet having a final concentration of 8 mg of tisssue/sample. Specific activity of the tracer: 80.9 Ci/mmole; incubation time: 20 min; incubation temperature: 37° C.

[3] = target: T3, 5-HT1A receptors (Rattus norvegicus, UniProt P19327); test: Affinity for the 5-HT1A receptors, [3H]-8-OH DPAT binding; settings: for Ki ± SE, 5-HT1A Subtype ([3H]-8OH-DPAT): rat hippocampus, 10 min, 37° C., IN (10^−6M) where no Ki is given
T3 construct: from tissue; host or cells: rat hippocampus
T3 sequence (P19327 1-422): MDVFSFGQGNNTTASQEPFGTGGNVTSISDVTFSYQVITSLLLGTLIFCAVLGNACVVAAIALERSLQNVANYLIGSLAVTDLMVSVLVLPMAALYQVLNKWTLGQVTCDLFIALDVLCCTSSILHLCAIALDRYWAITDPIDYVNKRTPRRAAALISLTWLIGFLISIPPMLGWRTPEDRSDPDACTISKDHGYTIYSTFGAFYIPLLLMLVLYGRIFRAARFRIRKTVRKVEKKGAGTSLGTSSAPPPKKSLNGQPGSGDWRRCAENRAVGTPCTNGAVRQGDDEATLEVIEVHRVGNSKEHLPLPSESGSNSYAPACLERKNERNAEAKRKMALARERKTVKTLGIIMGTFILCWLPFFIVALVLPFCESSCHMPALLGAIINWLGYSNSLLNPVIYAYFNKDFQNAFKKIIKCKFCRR
Procedure: d) Affinity for the 5-HT1A Receptors
The method of Hall et al (J. Neurochem. 1985, 44, 1685-1696) was followed with slight modifications. Rat hippocampus was used to produce a pellet having a final concentration of 4 mg of tissue/sample. Specific activity of the tracer: 137 Ci/mmole; incubation time 10 min; incubation temperature: 37° C.

[4] = target: T4, serotonin uptake site (Rattus norvegicus, UniProt P31652); test: Affinity for the serotonin uptake site, [3H]-paroxetine binding
T4 construct: from tissue; host or cells: entire rat brain
T4 sequence (P31652 whole entry): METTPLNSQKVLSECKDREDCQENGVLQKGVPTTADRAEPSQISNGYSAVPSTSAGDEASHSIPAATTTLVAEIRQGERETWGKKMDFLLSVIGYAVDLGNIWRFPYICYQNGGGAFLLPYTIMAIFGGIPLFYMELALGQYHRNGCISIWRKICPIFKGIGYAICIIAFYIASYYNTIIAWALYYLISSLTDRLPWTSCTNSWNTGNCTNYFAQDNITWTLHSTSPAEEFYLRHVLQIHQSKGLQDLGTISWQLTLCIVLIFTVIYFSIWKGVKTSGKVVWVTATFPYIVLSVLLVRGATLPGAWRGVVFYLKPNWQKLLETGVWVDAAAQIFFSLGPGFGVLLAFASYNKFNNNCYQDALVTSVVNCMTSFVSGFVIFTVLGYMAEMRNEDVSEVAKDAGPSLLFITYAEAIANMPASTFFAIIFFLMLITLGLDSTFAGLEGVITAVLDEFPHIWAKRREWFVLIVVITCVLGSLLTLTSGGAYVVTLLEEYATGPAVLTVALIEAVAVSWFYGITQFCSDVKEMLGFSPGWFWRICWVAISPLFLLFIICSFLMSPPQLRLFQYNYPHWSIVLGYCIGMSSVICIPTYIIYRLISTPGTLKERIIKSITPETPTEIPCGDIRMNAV
Procedure: The method of Plenge et al (Eur. J. Pharmacol., 1990, 189, 129-134) was followed with slight modifications. The entire rat brain was used to produce a pellet having a final concentration of 2 mg of tissue/sample. Specific activity of the tracer: 29.7 Ci/mmole; incubation time: 60 min.; incubation temperature: 25° C.

[5] = rat prefrontal cortex, 20 min, 37° C., IN (10^−6M) where no Ki is given
[6] = entire rat brain, 60 min, 25° C., read-out: Ki ± SE, 5-HT Uptake ([3H]-paroxetin)

Row | SMILES | Ki [1] [µM] | Ki ± SE, 5-HT2A Subtype ([3R]-ketanserine) [2, 5] | Ki ± SE, 5-HT1A Subtype ([3H]-8OH-DPAT) [3] | Ki [4, 6] [µM] | melting point [°C] | other results
1 | CN1[C@@H]2CC[C@H]1C[C@@H](N1Cc3nc4ccccc4cc3C1=O)C2 [Compound 11, endo-2-[8-methyl-8-azadicyclo[3.2.1]oct-3-yl]-2,3-dihydro-1H-pyrrolo[3,4-b]quinolin-1-one, reference compound] | 0.087 ± 0.037 | – | – | – | – | less active than Compound 2 at the 5HT3 receptor ([1]; relative to Compound 2): approximately 60 times
2 | O=C1c2c(cnc3ccccc23)CN1C1CN2CCC1CC2 (racemic) [Compound 9, (R,S)-2-[1-azadicyclo[2.2.2]oct-3-yl]-2,3-dihydro-1H-pyrrolo[3,4-c]quinolin-1-one] | 0.0016 ± 0.0006 | IN (10^−6M) | IN (10^−6M) | 0.124 ± 0.022 | – | –
3 | O=[N+]([O-])c1ccc2nc(N3CCNCC3)ccc2c1 [6-NO2-quipazine, reference compound] | – | – | – | 0.00012 ± 1e-05 | – | –
4 | CN1[C@@H]2CC[C@H]1C[C@@H](N1Cc3cnc4ccccc4c3C1=O)C2 [Compound 2, endo-2-[8-methyl-8-azadicyclo[3.2.1]oct-3-yl]-2,3-dihydro-1H-pyrrolo[3,4-c]quinolin-1-one] | 0.0013 ± 0.0002 | IN (10^−6M) | IN (10^−6M) | 0.503 ± 0.086 | 153 to 154 | –
5 | CCCOc1nc2ccccc2c2c1CN(C1CC3CCC(C1)N3C)C2=O (stereo not drawn) [Compound 4, endo-2-[8-methyl-8-azadicyclo[3.2.1]oct-3-yl]-2,3-dihydro-4-propoxy-1H-pyrrolo[3,4-c]quinolin-1-one] | 0.0007 ± 0.0002 | IN (10^−6M) | IN (10^−6M) | 0.108 ± 0.015 | 170 to 171 | –
6 | CN1[C@@H]2CC[C@H]1C[C@H](N1Cc3ccc4ccccc4c3C1=O)C2 [Compound 10, reference compound] | 0.0855 ± 0.016 | – | – | – | – | less active than Compound 1 at the 5HT3 receptor ([1]; relative to Compound 1): ~2 orders of logarithmic magnitude
7 | CN1[C@@H]2CC[C@H]1C[C@@H](N1Cc3c(Cl)nc4ccccc4c3C1=O)C2 [Compound 3, endo-2-[8-methyl-8-azadicyclo[3.2.1]oct-3-yl]-2,3-dihydro-4-chloro-1H-pyrrolo[3,4-c]quinolin-1-one] | 0.0026 ± 0.0004 | IN (10^−6M) | IN (10^−6M) | 0.175 ± 0.03 | 169 to 171 | –
8 | O=C1c2c(ccc3ccccc23)CN1C1CN2CCC1CC2 (racemic) [Compound 6, (R,S)-2-[1-azadicyclo[2.2.2]oct-3-yl]-2,3-dihydro-1H-benz[e]isoindol-1-one] | 0.0007 ± 8e-05 | – | IN (10^−6M) | – | 153 to 154 | Ki [2]: 26.5 ± 8.7 µM; Ki [4]: 0.0958 ± 0.0096 µM
9 | O=C1c2c(ccc3ccccc23)CN1[C@H]1CN2CCC1CC2 [Compound 8, (R)-2-[1-azadicyclo[2.2.2]oct-3-yl]-2,3-dihydro-1H-benz[e]isoindol-1-one] | 0.0018 ± 0.0005 | – | – | – | 155 to 157 | –
10 | CN1[C@@H]2CC[C@H]1C[C@@H](N1Cc3c(O)nc4ccccc4c3C1=O)C2 [Compound 5, endo-2-[8-methyl-8-azadicyclo[3.2.1]oct-3-yl]-2,3-dihydro-4-hydroxy-1H-pyrrolo[3,4-c]quinolin-1-one] | 0.0009 ± 6e-05 | IN (10^−6M) | IN (10^−6M) | 0.485 ± 0.037 | 245 to 246 | –
11 | O=C1c2c(ccc3ccccc23)CN1[C@@H]1CN2CCC1CC2 [Compound 7, (S)-2-[1-azadicyclo[2.2.2]oct-3-yl]-2,3-dihydro-1H-benz[e]isoindol-1-one] | 0.0003 ± 9e-05 | – | – | – | 152 to 154 | affinity for the 5-HT3 receptor (in words) [1]: sub-nanomolar
12 | CN1[C@@H]2CC[C@H]1C[C@@H](N1Cc3ccc4ccccc4c3C1=O)C2 [Compound 1] | 0.001 ± 0.0002 | – | – | 0.632 ± 0.051 | – | Ki [2]: 21.1 ± 2.3 µM; Ki ([3]; read-out: Ki ± SE, 5-HT1A Subtype ([3H]-8OH-DPAT)): 30.6 ± 6.46 µM
13 | c1ccc2nc(N3CCNCC3)ccc2c1 [quipazine, reference compound] | – | – | – | 0.0313 ± 0.0029 | – | Ki [2, 5]: 1.81 ± 0.476 µM
